{
  "source": "paper PMC3713324",
  "about": "“Polyisoprenylated Methylated Protein Methyl Esterase Is Both Sensitive to Curcumin and Overexpressed in Colorectal Cancer: Implications for Chemoprevention and Treatment” (BioMed Research International, 2013)",
  "molecular_target": "T1, polyisoprenylated methylated protein methyl esterase (PMPMEase) (Sus scrofa, UniProt Q29550)",
  "T1 construct": "purified PMPMEase",
  "T1 sequence (Q29550 19-566)": "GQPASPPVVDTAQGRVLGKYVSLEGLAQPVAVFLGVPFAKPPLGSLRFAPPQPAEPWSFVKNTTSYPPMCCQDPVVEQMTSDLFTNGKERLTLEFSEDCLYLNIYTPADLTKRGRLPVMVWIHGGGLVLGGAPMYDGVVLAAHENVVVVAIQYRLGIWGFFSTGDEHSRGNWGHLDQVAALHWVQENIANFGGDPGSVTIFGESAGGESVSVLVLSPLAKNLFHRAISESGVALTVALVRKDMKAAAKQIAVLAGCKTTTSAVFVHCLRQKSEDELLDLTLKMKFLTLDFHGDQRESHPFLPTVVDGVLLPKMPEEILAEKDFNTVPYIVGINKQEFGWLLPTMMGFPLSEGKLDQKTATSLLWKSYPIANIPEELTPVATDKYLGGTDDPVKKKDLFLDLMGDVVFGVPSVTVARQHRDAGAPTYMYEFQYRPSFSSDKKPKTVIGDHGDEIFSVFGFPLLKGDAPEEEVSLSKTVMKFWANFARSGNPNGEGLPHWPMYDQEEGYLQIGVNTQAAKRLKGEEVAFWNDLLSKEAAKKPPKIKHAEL",
  "experiment": "RP-HPLC assay of RD-PNB hydrolysis by purified enzyme; Michaelis-Menten kinetics; reversibility by gel filtration",
  "type": "biochemical",
  "note": "pKi: −log10 of the molar value.",
  "data": [
    {"smiles": "COc1cc(/C=C/C(=O)CC(=O)/C=C/c2ccc(O)c(OC)c2)ccc1O", "note": "[curcumin]", "values": [
      {"measurement": "pKi", "value": 6.51}
    ]}
  ]
}
